Where a name gives a salt, the structure may show the parent alone. Read-outs that look alike come from different tables or passages of the source.
Legend:
HIV-1 [1] = assay: combined effects of MA and available nucleoside analogs (Table 2); assay type: cell-based
Excerpt: Although MA directly depletes cellular guanosine pools through inhibition of IMPDH, this may result secondarily in perturbations of other cellular enzyme activities. Such perturbations could result in beneficial or detrimental therapeutic effects. The combined effects of MA and available nucleoside analogs are described in Table 2: […]

[2] = system: HIV reverse transcriptase M184V; details: cited from earlier work
[3] = molecular target: inosine monophosphate dehydrogenase (IMPDH); details: literature values; read-out: Ki for IMPDH inhibition; cited from earlier work
Type II isoform of IMPDH = Type II isoform of IMPDH (Homo sapiens, UniProt P12268); details: stimulated lymphocytes isoform; cited from earlier work
HIV-1 IIIb = assay: p24 production by HIV-1 IIIb infected PHA-stimulated PBMCs, Greco interaction model; assay type: cell-based; details: HIV IIIb in PBMCs; for IC50: p24 day 7, Greco model estimate
Experimental: (§1) Primary PBMCs were separated from whole blood of HIV seronegative donors by density centrifugation over Ficoll-Hypaque (Sigma). The culture medium consisted of RPMI supplemented with 10% fetal bovine serum (FBS), 2 mM glutamine and penicillin/streptomycin (Gibco, Grand Island, N.Y.). For infection studies involving PBMCs, cells were stimulated with 10 μg/mL phytohemagglutinin (PHA; Boehringer Mannheim, Indianapolis, Ind.) and cultured for 3 days. Stimulated PBMCs were infected by incubation with virus at a multiplicity of infection of 1000 TCID50/d10^6 PBMC for 2 hours. PBMC were then washed three times with PBS and cultured in 5% CO2 at 37° C, in RPMI/10% FBS supplemented with 10 units/mL IL-2 (Boehringer Mannheim) and drugs as appropriate. PBMC were seeded in 96-well flat-bottom plates at a density of 2×10^5 PBMC/200 μL. Following three days of culture, half of the medium was replaced with fresh medium containing IL-2 and drugs. After 7 days of culture HIV-1 p24 production in the culture supernatant was assayed by ELISA (Coulter, Hialeah, Fla.).
Additive antiviral effect was analyzed according to the definition of Loewe, using the interaction model of Greco et al. as was described above. This model is fully parametric, and point estimates of the model parameters are obtained in a traditional weighted, nonlinear least-squares approach. The model follows the equation below: [formula]
where α (alpha) is the synergism-antagonism interaction parameter, IC50.1 and IC50.2 are the drug concentrations resulting in 50% inhibition for drug 1 and drug 2, respectively; D1 and D2 are the concentration of drugs tested; Econ is the control effect in the absence of either drug, E is the observed effect , and m 1 and m 2 are the slope parameters for each drug. If the estimate of α is zero, the drug combination is additive; if α is positive, the interaction is synergistic; if α is negative, the interaction is antagonistic. […] That is, if the 95% confidence interval encompasses zero, the interaction is additive. […] This model was implemented using the ADAPT II programs (D'Argenio D. Z, Schumitzky A. ADAPT II: a program package for simulation identification and optimal experimental design. 1990. Biomedical Simulations Resource, Univ. Of Southern California, Los Angeles). Each drug combination was tested in triplicate so as to obtain an estimate of the variance of the effect at different drug concentration combinations.
The combined effect of abacavir and MA was examined in PBMC culture systems. PBMCs from a seronegative donor were stimulated with PHA and infected with the T-cell tropic isolate HIV-1 IIIb. At the clinically utilized dose (600 mg/day) of abacavir steady state peak serum levels are […] (4.47 μM; e.g.,see Ziagen package insert. Glaxo Wellcome, Inc., Research Triangle Park, N.C.). After a single 1000 mg dose of MA in a healthy individual, the mean peak serum level is 56.5 μM. Therefore, infected cells were cultured in the presence of abacavir from 0 to 4 μM, and in the presence of 0 to 1 μM of MA. On day 7 after infection the number of viable cells was determined by MTT assay (Boehringer Mannheim), and p24 antigen in the culture supernatant was measured.
The interaction of abacavir and MA in the suppression of HIV IIIb replication in PBMCs was analyzed using the Greco model as described above. Each data point was determined in triplicate. Each observation was weighted by the inverse of the observation variance. These parameters and their 95% confidence bounds are shown below: […]

cellular guanosine pools = assay: addition of deoxynucleosides to the culture media; assay type: cell-based; details: not shown
Excerpt: MA may synergize with abacavir via depletion of cellular guanosine pools, effectively increasing the intracellular concentration of abacavir. However, MA may also act via a general inhibitory effect on T lymphocyte proliferation, as has been hypothesized in the case of hydroxyurea (Lori F., Malykh A. G., Foli A., Maserati R., De Antoni A., Minoli L., Padrini D., Degli Antoni A., Barchi E., Jessen H., Wainberg M. A., Gallo R. C., Lisziewicz J. Combination of a drug targeting the cell with a drug targeting the virus controls human immunodeficiency virus type 1 resistance. AIDS Res Hum Retroviruses 1997; 13(16): 1403-9; De Boer R. J., Boucher C. A., Perelson A. S. Target cell availability and the successful suppression of HIV by hydroxyurea and didanosine. AIDS 1998; 12(13): 1567-70).

HIV-1 [4] = details: 1-10 μM; cited from earlier work
neutrophil function = details: concentrations of up to 10 μM; cited from earlier work
IL-2 receptor signaling = details: high concentrations; cited from earlier work
[5] = single 1000 mg dose in a healthy individual; cited from earlier work
PBMC = assay: MTT cell proliferation assay of PBMC cultures; details: 0.5 μM MA
Experimental: Cellular proliferation in culture in the presence or absence of MA and abacavir was measured using a commercial MMT cell proliferation assay, as per the manufacturer's instructions (Boehringer Mannheim).

Wild-type HIV = assay: replication of wild-type HIV-1 in PBMCs, day 7 p24; assay type: cell-based; details: Human immunodeficiency virus 1, PBMC; 4 μM abacavir
Experimental: as §1

[6] = system: resistant HIV encoding M184V; assay: replication of M184V mutant HIV-1 in PBMCs, day 7 p24; assay type: cell-based; details: Human immunodeficiency virus 1, PBMC, read-out: inhibition of resistant HIV encoding M184V
Experimental: as §1

HIV-1 [7] = details: monotherapy; cited from earlier work

In the case of `Nc1ccn([C@H]2CC[C@@H](CO)O2)c(=O)n1` [zalcitibine, 2′,3′-dideoxycytidine], the “antiviral effect of nucleoside analog alone” value (HIV-1 [1]; concentration not given) is reported as 3.9.

For `Nc1ccn([C@@H]2CS[C@H](CO)O2)c(=O)n1` (relative stereo) [3TC, (2R,cis)4-amino-1-(2-hydroxymethyl-1,3-oxathiolan-5-yl)-(1H)-pyrimidin-2-one], the “resistance conferred by M184V” value [2] is given as “high level resistance”.

For `Cc1cn([C@H]2C[C@H](N=[N+]=[N-])[C@@H](CO)O2)c(=O)[nH]c1=O` [zidovudine, 3′-azido-3′-deoxythymidine], the “antiviral effect of nucleoside analog alone” value (HIV-1 [1]; concentration not given) was 84.

For `COc1c(C)c2c(c(O)c1C/C=C(\C)CCC(=O)O)C(=O)OC2` [Mycophenolic acid], the Ki [3] is listed as 2 to 10 nM and the “sensitivity of Type II isoform versus the isoform predominant in other cell lineages” value (Type II isoform of IMPDH) is listed as “four times more sensitive”.

With `COc1c(C)c2c(c(O)c1C/C=C(\C)CCC(=O)OCCN1CCOCC1)C(=O)OC2` [MA, 2-morpholinoethyl ester of mycophenolic acid] the “m MA (slope parameter)” value (HIV-1 IIIb; Greco model estimate) was 1.90, the IC50 (HIV-1 IIIb; read-out: IC50 MA) was 110 nM and the IC50 (HIV-1 IIIb; Human immunodeficiency virus 1, IIIB, PBMC, 168 h, read-out: IC50 MA) was 100 nM. The “antiviral effect of MA alone” value (HIV-1 [1]; 0.125 μM MA) was 1.3, the “antiviral effect of MA alone” value (HIV-1 [1]; 0.5 μM MA) was 9.3 and the “inhibitory effect of MA after addition of deoxyadenosine” value (cellular guanosine pools) was “no effect”. For the same compound, the “inhibitory effect of MA after addition of deoxyguanosine” value (cellular guanosine pools) was “ablated the inhibitory effect”, the “effect on replication of HIV-1 in vitro” value (HIV-1 [4]) was “inhibit ed the replication” and the “effect on neutrophil function” value (neutrophil function) was “do not inhibit neutrophil function”. For the same compound, the “effect on IL-2 receptor signaling” value (IL-2 receptor signaling) was “do not disrupt IL-2 receptor signaling”, the “mean peak serum level” value [5] was 56.5 µM and the antiproliferative effect (PBMC) was “modest antiproliferative effect”.

With `Cc1cn([C@H]2C=C[C@@H](CO)O2)c(=O)[nH]c1=O` [stavudine, 2′,3′-dihydro-3′-deoxythymidine] the “antiviral effect of nucleoside analog alone” value (HIV-1 [1]; 2 μM) was 115.

For `Nc1nc(NC2CC2)c2ncn([C@H]3C=C[C@@H](CO)C3)c2n1` [abacavir, (1S,cis)-4-[2-amino-6-(cyclopropylamino)-9H-purin-9-yl]-2-cyclopentene-1-methanol sulfate], the “m abacavir (slope parameter)” value (HIV-1 IIIb; Greco model estimate) was 0.70, the IC50 (HIV-1 IIIb; read-out: IC50 abacavir) was 630 nM and the IC50 (HIV-1 IIIb; Human immunodeficiency virus 1, IIIB, PBMC, 168 h, read-out: IC50 abacavir) was 626 nM. For the same compound, the inhibition at 4 µM (Wild-type HIV) was 98%, the inhibition at 4 µM [6] was 53% and the “antiviral effect of nucleoside analog alone” value (HIV-1 [1]; 2 μM) was 2.7. The “drop in plasma HIV-1 RNA” value (HIV-1 [7]) was 1.55 log.

For `OC[C@@H]1CC[C@H](n2cnc3c(O)ncnc32)O1` [didanosine, 2′,3′-dideoxyinosine], the “antiviral effect of nucleoside analog alone” value (HIV-1 [1]; concentration not given) was 11.
